Values of other authors in patent publication US20190083000A1, “PERSONALIZED FOOD FOR DYSPHAGIA MANAGEMENT” (NESTEC S.A., priority 2016, published 2019).

Settings: database Episuite 4.1

Compound	Lipophilicity: Oil/Water partition coefficient log Kow [w/v]	Volatility: Air/water partition coefficient log K [w/v]
CC(=O)C(C)=O [2,3-Butanedione]	−1.34	−5.09
COc1cc(C=O)ccc1O [Vanillin]	1.05	−8.47
CS [Methanethiol]	0.78	−0.97
CSC [Dimethylsulfide]	0.92	−1.49
CCC(=O)C(C)=O [2,3-Pentanedione]	−0.85	−4.97
C=C(C)[C@H]1CC=C(C)CC1 [Limonene]	4.38	0.12
CC(C)CC=O [3-Methylbutanal]	1.23	−2.19
CCC(C)C=O (stereo not drawn) [2-Methylbutanal]	1.23	−2.20
CC=O [Acetaldehyde]	−0.17	−2.56
2-Methylpropanal		−2.31
CCCC(=O)OCC [Ethylbutyrate]	1.85	−1.79
